Reference: ChEMBL document CHEMBL4507287, “Data for DCP probe MRL-650” (2021)
Calls of active or inactive are those of the source. No cut-off for these calls is given here.

Key:
[1] = GPCRScan assay: inhibition of GABA/PBR; parameters: species or system Rattus norvegicus; radioligand conc. used [nm] 0.3 – 2.0, parental cells brain tissue
[2] = target: Sigma intracellular receptor 2 (Homo sapiens, UniProt Q5BJF2); assay: GPCRScan assay: inhibition of Sigma 2; parameters: radioligand conc. used [nm] 5.0, parental cells HEKT
Sequence of Sigma intracellular receptor 2 (Q5BJF2 whole entry): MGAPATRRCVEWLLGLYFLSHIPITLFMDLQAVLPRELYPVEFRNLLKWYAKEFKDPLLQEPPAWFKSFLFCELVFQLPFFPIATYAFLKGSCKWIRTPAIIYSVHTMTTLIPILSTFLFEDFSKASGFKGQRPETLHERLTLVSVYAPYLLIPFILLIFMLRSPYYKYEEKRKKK

[3] = target: Sigma non-opioid intracellular receptor 1 (Homo sapiens, UniProt Q99720); assay: GPCRScan assay: inhibition of Sigma 1; parameters: radioligand conc. used [nm] 4.0 – 5.0, parental cells HEKT
Cannabinoid receptor 1 [4] = target: T1, Cannabinoid receptor 1 (Homo sapiens, UniProt P21554); assay: Functional activation assay
T1 sequence (P21554 whole entry): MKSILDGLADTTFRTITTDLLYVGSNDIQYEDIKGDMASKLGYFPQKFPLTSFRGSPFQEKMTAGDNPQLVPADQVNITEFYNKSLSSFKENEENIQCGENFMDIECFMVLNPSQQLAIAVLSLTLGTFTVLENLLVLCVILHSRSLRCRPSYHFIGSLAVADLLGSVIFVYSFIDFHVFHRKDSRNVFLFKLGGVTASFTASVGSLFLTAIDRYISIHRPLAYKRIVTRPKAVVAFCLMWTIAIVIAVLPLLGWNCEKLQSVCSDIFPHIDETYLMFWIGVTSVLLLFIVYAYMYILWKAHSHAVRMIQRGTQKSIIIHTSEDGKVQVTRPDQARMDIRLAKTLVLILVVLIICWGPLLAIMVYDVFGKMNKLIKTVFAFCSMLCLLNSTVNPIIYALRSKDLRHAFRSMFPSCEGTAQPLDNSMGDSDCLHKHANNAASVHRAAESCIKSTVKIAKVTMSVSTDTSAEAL

[5] = test system: Tyrosine-protein kinase ABL1 (Homo sapiens), P00519 [F317I]; conditions: Compound concentration 1000.0 nM
Sequence of Tyrosine-protein kinase ABL1 (Homo sapiens), P00519 [F317I] (P00519 whole entry F317I): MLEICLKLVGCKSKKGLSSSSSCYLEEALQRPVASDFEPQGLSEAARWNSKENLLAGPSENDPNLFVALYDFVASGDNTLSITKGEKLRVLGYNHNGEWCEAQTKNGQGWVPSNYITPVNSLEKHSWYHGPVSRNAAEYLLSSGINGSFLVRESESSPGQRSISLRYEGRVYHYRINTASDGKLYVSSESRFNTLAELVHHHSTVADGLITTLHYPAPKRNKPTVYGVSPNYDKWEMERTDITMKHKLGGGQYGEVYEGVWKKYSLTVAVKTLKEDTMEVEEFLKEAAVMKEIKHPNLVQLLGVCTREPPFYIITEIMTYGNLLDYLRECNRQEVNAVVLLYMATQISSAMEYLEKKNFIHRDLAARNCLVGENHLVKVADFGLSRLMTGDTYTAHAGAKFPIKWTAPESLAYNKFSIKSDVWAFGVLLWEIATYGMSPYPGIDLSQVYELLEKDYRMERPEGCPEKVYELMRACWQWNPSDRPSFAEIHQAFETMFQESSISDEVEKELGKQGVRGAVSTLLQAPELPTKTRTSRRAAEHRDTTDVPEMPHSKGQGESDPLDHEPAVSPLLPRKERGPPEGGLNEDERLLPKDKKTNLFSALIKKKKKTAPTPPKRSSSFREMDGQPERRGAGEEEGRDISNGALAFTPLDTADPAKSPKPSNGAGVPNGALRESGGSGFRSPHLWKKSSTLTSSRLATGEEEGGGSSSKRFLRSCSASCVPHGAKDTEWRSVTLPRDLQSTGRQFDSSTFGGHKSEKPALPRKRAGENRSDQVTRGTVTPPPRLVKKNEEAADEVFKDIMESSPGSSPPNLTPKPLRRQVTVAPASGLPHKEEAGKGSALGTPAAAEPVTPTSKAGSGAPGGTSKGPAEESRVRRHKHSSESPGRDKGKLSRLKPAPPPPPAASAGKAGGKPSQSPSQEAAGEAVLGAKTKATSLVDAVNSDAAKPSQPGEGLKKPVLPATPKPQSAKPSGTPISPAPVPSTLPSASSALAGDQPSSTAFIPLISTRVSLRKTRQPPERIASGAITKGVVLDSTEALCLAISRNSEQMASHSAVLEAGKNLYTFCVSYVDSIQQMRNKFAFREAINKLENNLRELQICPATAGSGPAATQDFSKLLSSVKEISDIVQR

[6] = test system: Epidermal growth factor receptor (Homo sapiens), P00533 [G719S]; conditions: Compound concentration 1000.0 nM
[7] = target: Fibroblast growth factor receptor 2 (Homo sapiens) (UniProt P21802); conditions: Compound concentration 1000.0 nM
[8] = target: Glycogen synthase kinase-3 alpha (Homo sapiens) (UniProt P49840); conditions: Compound concentration 1000.0 nM
Sequence of Glycogen synthase kinase-3 alpha (Homo sapiens) (P49840 2-483 limits assumed): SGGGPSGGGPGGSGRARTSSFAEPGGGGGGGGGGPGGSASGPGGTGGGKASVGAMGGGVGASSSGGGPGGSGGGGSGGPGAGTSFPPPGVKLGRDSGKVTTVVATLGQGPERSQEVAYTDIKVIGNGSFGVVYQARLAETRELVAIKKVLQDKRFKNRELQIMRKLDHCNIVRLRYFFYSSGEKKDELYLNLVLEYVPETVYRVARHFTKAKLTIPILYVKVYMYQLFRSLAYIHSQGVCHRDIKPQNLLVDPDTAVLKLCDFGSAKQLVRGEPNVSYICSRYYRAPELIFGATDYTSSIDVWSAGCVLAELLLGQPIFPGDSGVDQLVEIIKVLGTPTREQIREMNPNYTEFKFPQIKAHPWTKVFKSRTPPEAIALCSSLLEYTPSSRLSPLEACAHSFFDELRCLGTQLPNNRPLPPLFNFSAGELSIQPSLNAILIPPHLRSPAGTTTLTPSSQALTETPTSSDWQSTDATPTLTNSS

[9] = target: Mitogen-activated protein kinase 9 (Homo sapiens) (UniProt P45984); conditions: Compound concentration 1000.0 nM
Sequence of Mitogen-activated protein kinase 9 (Homo sapiens) (P45984 whole entry, looked up): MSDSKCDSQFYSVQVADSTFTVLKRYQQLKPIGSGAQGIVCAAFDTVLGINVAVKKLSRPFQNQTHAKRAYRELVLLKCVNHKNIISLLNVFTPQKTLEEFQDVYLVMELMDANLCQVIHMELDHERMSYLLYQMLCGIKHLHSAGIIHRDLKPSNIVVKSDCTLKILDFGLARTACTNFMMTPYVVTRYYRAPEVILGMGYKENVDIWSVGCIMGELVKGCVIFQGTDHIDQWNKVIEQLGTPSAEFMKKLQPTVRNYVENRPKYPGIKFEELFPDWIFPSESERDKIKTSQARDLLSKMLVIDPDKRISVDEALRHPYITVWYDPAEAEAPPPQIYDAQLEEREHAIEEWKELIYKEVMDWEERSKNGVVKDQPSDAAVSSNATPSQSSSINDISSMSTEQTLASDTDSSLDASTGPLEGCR

[10] = test system: Mast/stem cell growth factor receptor Kit (Homo sapiens), P10721 [L576P]; conditions: Compound concentration 1000.0 nM
Sequence of Mast/stem cell growth factor receptor Kit (Homo sapiens), P10721 [L576P] (P10721 whole entry L576P): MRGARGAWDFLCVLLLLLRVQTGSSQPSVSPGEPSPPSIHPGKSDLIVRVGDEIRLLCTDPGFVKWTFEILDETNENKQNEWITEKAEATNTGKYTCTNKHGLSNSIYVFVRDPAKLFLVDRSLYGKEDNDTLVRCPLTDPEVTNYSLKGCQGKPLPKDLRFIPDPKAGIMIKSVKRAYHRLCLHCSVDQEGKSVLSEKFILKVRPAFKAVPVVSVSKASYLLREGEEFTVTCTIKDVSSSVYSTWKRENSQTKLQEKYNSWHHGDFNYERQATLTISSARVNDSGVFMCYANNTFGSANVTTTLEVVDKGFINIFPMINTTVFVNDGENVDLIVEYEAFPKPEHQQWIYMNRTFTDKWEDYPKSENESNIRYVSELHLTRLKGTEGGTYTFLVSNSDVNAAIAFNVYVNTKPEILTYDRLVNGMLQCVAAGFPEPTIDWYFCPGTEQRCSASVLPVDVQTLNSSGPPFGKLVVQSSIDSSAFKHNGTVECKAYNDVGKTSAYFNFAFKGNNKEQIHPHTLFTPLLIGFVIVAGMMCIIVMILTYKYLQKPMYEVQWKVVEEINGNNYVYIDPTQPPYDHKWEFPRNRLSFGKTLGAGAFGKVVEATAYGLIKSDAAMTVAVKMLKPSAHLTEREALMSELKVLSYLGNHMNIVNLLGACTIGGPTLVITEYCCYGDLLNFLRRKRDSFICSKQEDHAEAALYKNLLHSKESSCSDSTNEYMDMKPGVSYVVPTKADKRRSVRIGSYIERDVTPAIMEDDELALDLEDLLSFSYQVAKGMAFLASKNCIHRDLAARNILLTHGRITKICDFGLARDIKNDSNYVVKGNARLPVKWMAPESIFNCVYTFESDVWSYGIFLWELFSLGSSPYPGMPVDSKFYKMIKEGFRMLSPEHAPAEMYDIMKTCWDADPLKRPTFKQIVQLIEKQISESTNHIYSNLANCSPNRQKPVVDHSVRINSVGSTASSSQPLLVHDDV

[11] = target: Mitogen-activated protein kinase kinase kinase 11 (Homo sapiens) (UniProt Q16584); conditions: Compound concentration 1000.0 nM
[12] = target: Rho-associated protein kinase 1 (Homo sapiens) (UniProt Q13464); conditions: Compound concentration 1000.0 nM
[13] = target: Ribosomal protein S6 kinase alpha-3 (Homo sapiens) (UniProt P51812); conditions: Compound concentration 1000.0 nM
Sequence of Ribosomal protein S6 kinase alpha-3 (Homo sapiens) (P51812 whole entry): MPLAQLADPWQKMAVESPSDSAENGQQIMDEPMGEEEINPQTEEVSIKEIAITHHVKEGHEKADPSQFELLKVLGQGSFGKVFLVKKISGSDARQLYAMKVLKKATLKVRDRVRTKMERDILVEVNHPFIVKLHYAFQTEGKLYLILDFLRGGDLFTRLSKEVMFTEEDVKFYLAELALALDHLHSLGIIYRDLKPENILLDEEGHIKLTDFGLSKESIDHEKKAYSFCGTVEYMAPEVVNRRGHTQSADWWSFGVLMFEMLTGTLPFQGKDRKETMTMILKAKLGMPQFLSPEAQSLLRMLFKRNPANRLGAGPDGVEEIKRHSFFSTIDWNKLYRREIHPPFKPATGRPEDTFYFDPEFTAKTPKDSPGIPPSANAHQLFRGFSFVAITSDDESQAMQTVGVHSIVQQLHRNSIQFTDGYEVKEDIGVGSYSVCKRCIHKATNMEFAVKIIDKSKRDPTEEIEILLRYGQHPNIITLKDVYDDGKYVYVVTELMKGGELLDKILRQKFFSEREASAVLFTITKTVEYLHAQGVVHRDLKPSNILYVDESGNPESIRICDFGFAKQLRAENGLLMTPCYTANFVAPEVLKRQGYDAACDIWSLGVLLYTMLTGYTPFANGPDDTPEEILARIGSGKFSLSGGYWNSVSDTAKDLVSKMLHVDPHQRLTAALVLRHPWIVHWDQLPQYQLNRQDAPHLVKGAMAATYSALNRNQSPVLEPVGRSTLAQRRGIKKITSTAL

[14] = target: Ribosomal protein S6 kinase alpha-6 (Homo sapiens) (UniProt Q9UK32); conditions: Compound concentration 1000.0 nM
[15] = target: Serine/threonine-protein kinase 36 (Homo sapiens) (UniProt Q9NRP7); conditions: Compound concentration 1000.0 nM
[16] = target: Serine/threonine-protein kinase ULK2 (Homo sapiens) (UniProt Q8IYT8); conditions: Compound concentration 1000.0 nM
[17] = target: 5-hydroxytryptamine receptor 6 (Homo sapiens) (UniProt P50406); conditions: Compound concentration 10.0 uM
[18] = target: 5-hydroxytryptamine receptor 7 (Homo sapiens) (UniProt P34969); conditions: Compound concentration 10.0 uM
[19] = target: Sodium-dependent serotonin transporter (Homo sapiens) (UniProt P31645); conditions: Compound concentration 10.0 uM
[20] = target: Histamine H4 receptor (Homo sapiens) (UniProt Q9H3N8); conditions: Compound concentration 10.0 uM
[21] = target: 5-hydroxytryptamine receptor 2A (Homo sapiens, UniProt P28223); assay: GPCRScan assay: inhibition of 5-HT2A; parameters: radioligand conc. used [nm] 1.2 – 2.4, parental cells HEKT
[22] = target: 5-hydroxytryptamine receptor 2C (Homo sapiens, UniProt P28335); assay: GPCRScan assay: inhibition of 5-HT2C; parameters: radioligand conc. used [nm] 1.0 – 2.5, parental cells HEK T
[23] = target: Sodium-dependent dopamine transporter (Homo sapiens, UniProt Q01959); assay: GPCRScan assay: inhibition of DAT; parameters: radioligand conc. used [nm] 3.6 – 16.0, parental cells stable HEK
Sequence of Sodium-dependent dopamine transporter (Q01959 whole entry): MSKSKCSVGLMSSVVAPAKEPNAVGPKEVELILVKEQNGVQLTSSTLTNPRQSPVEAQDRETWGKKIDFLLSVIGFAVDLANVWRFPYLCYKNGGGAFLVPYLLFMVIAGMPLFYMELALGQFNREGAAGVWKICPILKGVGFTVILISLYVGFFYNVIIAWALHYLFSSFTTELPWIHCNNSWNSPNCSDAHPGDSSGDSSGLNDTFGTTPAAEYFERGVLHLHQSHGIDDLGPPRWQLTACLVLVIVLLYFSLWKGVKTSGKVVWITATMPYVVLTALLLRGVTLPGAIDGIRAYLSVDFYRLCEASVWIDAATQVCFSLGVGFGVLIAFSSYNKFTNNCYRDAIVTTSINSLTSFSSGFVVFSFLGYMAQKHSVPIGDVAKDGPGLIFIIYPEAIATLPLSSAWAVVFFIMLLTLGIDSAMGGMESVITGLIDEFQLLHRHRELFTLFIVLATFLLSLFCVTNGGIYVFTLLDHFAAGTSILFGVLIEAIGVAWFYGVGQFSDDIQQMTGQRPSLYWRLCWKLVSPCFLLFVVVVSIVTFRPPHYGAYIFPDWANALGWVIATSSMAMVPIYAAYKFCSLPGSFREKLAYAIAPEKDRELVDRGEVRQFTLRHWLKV

[24] = target: Delta-type opioid receptor (Homo sapiens, UniProt P41143); assay: GPCRScan assay: inhibition of DOR; parameters: radioligand conc. used [nm] 1.0 – 2.0, parental cells stable HEK
[25] = target: Alpha-2B adrenergic receptor (Homo sapiens, UniProt P18089); assay: GPCRScan assay: inhibition of Alpha2B; parameters: radioligand conc. used [nm] 1.5 – 2.0, parental cells HEKT
[26] = target: Alpha-2C adrenergic receptor (Homo sapiens, UniProt P18825); assay: GPCRScan assay: inhibition of Alpha2C; parameters: radioligand conc. used [nm] 0.5 – 1.0, parental cells stable MDCK
[27] = target: Beta-3 adrenergic receptor (Homo sapiens, UniProt P13945); assay: GPCRScan assay: inhibition of Beta3; parameters: radioligand conc. used [nm] 0.2 – 0.5, parental cells HEK Flp-In
[28] = target: GABA-A receptor; anion channel; assay: GPCRScan assay: inhibition of GABAA/BZP; format: protein-complex assay, Rattus norvegicus; parameters: radioligand conc. used [nm] 0.6 – 4.0, parental cells brain tissue
Cannabinoid receptor 1 [29] = target: T1, Cannabinoid receptor 1; assay: Radioligand Binding Assay (CNR1)
[30] = target: 5-hydroxytryptamine receptor 1A (Homo sapiens) (UniProt P08908); conditions: Compound concentration 10.0 uM
[31] = target: 5-hydroxytryptamine receptor 1E (Homo sapiens) (UniProt P28566); conditions: Compound concentration 10.0 uM
[32] = target: GABA-A receptor; anion channel (Rattus norvegicus) (UniProt O09028+P15431+P18506+P18508+P19969+P20236+P23574+P23576+P28471+P28473+P30191+P62813+P63079+P63138+Q91ZM7+Q9ES14); conditions: Compound concentration 10.0 uM
[33] = target: Beta-1 adrenergic receptor (Homo sapiens) (UniProt P08588); conditions: Compound concentration 10.0 uM

With CC(=O)Nc1c(C(C)=O)c(=O)n(C)c2nc(-c3ccc(Cl)cc3Cl)c(-c3ccc(Cl)cc3)cc12 [NAPHTHYRIDINONE] as the compound, how does the Ki [1] read?
Its Ki is 0.082 µM.

And the pKi [1]?
The pKi was 7.09.

What about the Ki [2] of the same compound?
The Ki was 0.605 µM.

And the Ki [3]?
Its Ki is 1.16 µM.

What about the EC50 (Cannabinoid receptor 1 [4]) of the same compound?
The EC50 was 0.0049 µM (active).

And the residual activity [5]?
Its residual activity is 94%.

What about the residual activity [6] of the same compound?
The residual activity was 100%.

What about the residual activity [7] of the same compound?
Its residual activity is 100%.

What about the residual activity [8] of the same compound?
The residual activity was 100%.

And the residual activity [9]?
The residual activity was 100%.

And the residual activity [10]?
The residual activity was 100%.

What about the residual activity [11] of the same compound?
The residual activity was 100%.

What about the residual activity [12] of the same compound?
The residual activity was 100%.

What about the residual activity [13] of the same compound?
The residual activity was 90%.

What about the residual activity [14] of the same compound?
The residual activity was 88%.

What about the residual activity [15] of the same compound?
Its residual activity is 92%.

What about the residual activity [16] of the same compound?
Its residual activity is 100%.

And the inhibition [17]?
The inhibition was -3.97%.

What about the inhibition [18] of the same compound?
The inhibition was 0.657%.

And the inhibition [19]?
The inhibition was -9.53%.

And the inhibition [20]?
Its inhibition is 13.9%.

Which results are given for CC(=O)c1c(NS(C)(=O)=O)c2cc(-c3ccc(Cl)cc3)c(-c3ccc(Cl)cc3Cl)nc2n(C)c1=O [MRL-CB1-NC]?
Ki [21]: 1.81 µM; Ki [22]: 0.022 µM; Ki ([23]; read-out: Ki): 0.766 µM; Ki ([23]; read-out: pKi (converted)): 0.794 µM; Ki [24]: 1.41 µM; Ki [25]: 1.69 µM; Ki [26]: 10 µM; Ki [27]: 1.13 µM; Ki [28]: 1.66 µM; Inverse agonism (Cannabinoid receptor 1 [29]): 32.5%; residual activity [5]: 85%; residual activity [6]: 100%; residual activity [7]: 92%; residual activity [8]: 75%; residual activity [9]: 67%; residual activity [10]: 99%; residual activity [11]: 100%; residual activity [12]: 85%; residual activity [13]: 75%; residual activity [14]: 76%; residual activity [15]: 100%; residual activity [16]: 97%; inhibition [30]: 28.7%; inhibition [31]: 29.2%; inhibition [32]: 0.954%; inhibition [33]: 25.6%
